From doi:10.1101/2024.08.19.608619, “Discovery of potent SARS-CoV-2 nsp3 macrodomain inhibitors uncovers lack of translation to cellular antiviral response” (bioRxiv, 2024)
Where two headings read alike, the source gives them in different places.

What was measured:
SARS-CoV-2 nsp3-mac1 [1] = molecular target: T1, SARS-CoV-2 nsp3-mac1 (Severe acute respiratory syndrome coronavirus 2, UniProt P0DTD1); experiment: biochemical; set-up: SARS-CoV-2 nsp3 macrodomain TR-FRET single point, per cent inhibition, n=2
SARS-CoV-2 nsp3-mac1 [2] = molecular target: T1, SARS-CoV-2 nsp3-mac1; experiment: biochemical; type: biochemical; settings: SARS-CoV-2 nsp3 macrodomain TR-FRET single point
[3] = read-out: perc_inhibition_mean, batch_name=ASAP-0000354-001
[4] = read-out: perc_inhibition_mean, batch_name=ASAP-0000355-001
[5] = read-out: perc_inhibition_mean, batch_name=ASAP-0000356-001
[6] = read-out: perc_inhibition_mean, batch_name=ASAP-0000357-001
[7] = read-out: perc_inhibition_mean, batch_name=ASAP-0000358-001
[8] = read-out: perc_inhibition_mean, batch_name=ASAP-0000359-001
[9] = read-out: perc_inhibition_mean, batch_name=ASAP-0000360-001
[10] = read-out: perc_inhibition_mean, batch_name=ASAP-0000361-001
[11] = read-out: perc_inhibition_mean, batch_name=ASAP-0000363-001
[12] = read-out: perc_inhibition_mean, batch_name=ASAP-0000364-001
[13] = read-out: perc_inhibition_mean, batch_name=ASAP-0000365-001
[14] = read-out: perc_inhibition_mean, batch_name=ASAP-0000366-001
[15] = read-out: perc_inhibition_mean, batch_name=ASAP-0000380-001
[16] = read-out: perc_inhibition_mean, batch_name=ASAP-0000381-001
[17] = read-out: perc_inhibition_mean, batch_name=ASAP-0000382-001
[18] = read-out: perc_inhibition_mean, batch_name=ASAP-0000383-001
[19] = read-out: perc_inhibition_mean, batch_name=ASAP-0000384-001

| SMILES | perc_inhibition_mean (SARS-CoV-2 nsp3-mac1 [2]; concentration 49.75 uM) [%] | perc_inhibition_mean (SARS-CoV-2 nsp3-mac1 [2]; concentration 99.5 uM) [%] | other results |
| --- | --- | --- | --- |
| Cc1ccc(NC(=O)c2cnn3ccc(C4CCN(C(=O)c5ccccc5)CC4)cc23)cc1C(=O)O [ASAP-0000354] | -1.047 | -0.624 | inhibition at 49.75 µM (SARS-CoV-2 nsp3-mac1 [1]; [3]): -1.05%; inhibition at 99.5 µM (SARS-CoV-2 nsp3-mac1 [1]; [3]): -0.624% |
| O=C(NCc1ncccn1)c1cnn2ccc(C3CCN(C(=O)c4ccccc4)CC3)cc12 [ASAP-0000355] | -0.074 | -6.657 | inhibition at 49.75 µM (SARS-CoV-2 nsp3-mac1 [1]; [4]): -0.074%; inhibition at 99.5 µM (SARS-CoV-2 nsp3-mac1 [1]; [4]): -6.66% |
| NC1(C(=O)N(CCC(=O)N2CCNCC2)Cc2cccc(Cl)c2)CC(F)(F)C1 [ASAP-0000356] | -3.48 | -1.174 | inhibition at 49.75 µM (SARS-CoV-2 nsp3-mac1 [1]; [5]): -3.48%; inhibition at 99.5 µM (SARS-CoV-2 nsp3-mac1 [1]; [5]): -1.17% |
| O=C1CCC[C@@H](C(=O)N(CCC(=O)N2CCNCC2)Cc2cccc(Cl)c2)N1 [ASAP-0000357] | 2.418 | -3.31 | inhibition at 49.75 µM (SARS-CoV-2 nsp3-mac1 [1]; [6]): 2.42%; inhibition at 99.5 µM (SARS-CoV-2 nsp3-mac1 [1]; [6]): -3.31% |
| Cc1ccc(C(=O)N2CCC(c3ccn4ncc(C(=O)N5CCCCC5)c4c3)CC2)c(=O)[nH]1 [ASAP-0000358] | 3.307 | 3.662 | inhibition at 49.75 µM (SARS-CoV-2 nsp3-mac1 [1]; [7]): 3.31%; inhibition at 99.5 µM (SARS-CoV-2 nsp3-mac1 [1]; [7]): 3.66% |
| O=C(Cc1ccns1)Nc1ncnc2[nH]cnc12 [ASAP-0000359] | -9.501 | -3.24 | inhibition at 49.75 µM (SARS-CoV-2 nsp3-mac1 [1]; [8]): -9.5%; inhibition at 99.5 µM (SARS-CoV-2 nsp3-mac1 [1]; [8]): -3.24% |
| O=C(O)c1ccsc1C(=O)N1CCC(c2ccn3ncc(C(=O)N4CCCCC4)c3c2)CC1 [ASAP-0000360] | 45.022 | 61.208 | inhibition at 49.75 µM (SARS-CoV-2 nsp3-mac1 [1]; [9]): 45%; inhibition at 99.5 µM (SARS-CoV-2 nsp3-mac1 [1]; [9]): 61.2% |
| CCN(Cc1nnc(C)o1)C(=O)c1cnn2ccc(C3CCN(C(=O)c4ccccc4)CC3)cc12 [ASAP-0000361] | 10.027 | -5.306 | inhibition at 49.75 µM (SARS-CoV-2 nsp3-mac1 [1]; [10]): 10%; inhibition at 99.5 µM (SARS-CoV-2 nsp3-mac1 [1]; [10]): -5.31% |
| Oc1ccccc1CNc1ncnc2cccnc12 [ASAP-0000363] | -1.837 | -0.535 | inhibition at 49.75 µM (SARS-CoV-2 nsp3-mac1 [1]; [11]): -1.84%; inhibition at 99.5 µM (SARS-CoV-2 nsp3-mac1 [1]; [11]): -0.535% |
| O=C(c1ccnnc1O)N1CCC(c2ccn3ncc(C(=O)N4CCCCC4)c3c2)CC1 [ASAP-0000364] | -7.591 | 10.21 | inhibition at 49.75 µM (SARS-CoV-2 nsp3-mac1 [1]; [12]): -7.59%; inhibition at 99.5 µM (SARS-CoV-2 nsp3-mac1 [1]; [12]): 10.2% |
| Cc1ccc2ccccc2c1-c1ncnc2[nH]ccc12 [ASAP-0000365] | -5.321 | -9.099 | inhibition at 49.75 µM (SARS-CoV-2 nsp3-mac1 [1]; [13]): -5.32%; inhibition at 99.5 µM (SARS-CoV-2 nsp3-mac1 [1]; [13]): -9.1% |
| COc1cc(CC(=O)Nc2cc3c(=O)nc[nH]c3cn2)on1 [ASAP-0000366] | -4.691 | -3.481 | inhibition at 49.75 µM (SARS-CoV-2 nsp3-mac1 [1]; [14]): -4.69%; inhibition at 99.5 µM (SARS-CoV-2 nsp3-mac1 [1]; [14]): -3.48% |
| Cn1cc([C@@H](Nc2ncnc3[nH]ccc23)c2ccccc2)cn1 [ASAP-0000380] | 19.983 | 39.262 | inhibition at 49.75 µM (SARS-CoV-2 nsp3-mac1 [1]; [15]): 20%; inhibition at 99.5 µM (SARS-CoV-2 nsp3-mac1 [1]; [15]): 39.3% |
| Cc1nn(C)c(C)c1[C@H]1COCCN1c1ncnc2[nH]ccc12 [ASAP-0000381] | -0.137 | -0.128 | inhibition at 49.75 µM (SARS-CoV-2 nsp3-mac1 [1]; [16]): -0.137%; inhibition at 99.5 µM (SARS-CoV-2 nsp3-mac1 [1]; [16]): -0.128% |
| O=C(c1cncc(O)n1)N1CCC(c2ccn3ncc(C(=O)N4CCCCC4)c3c2)CC1 [ASAP-0000382] | 26.617 | 41.906 | inhibition at 49.75 µM (SARS-CoV-2 nsp3-mac1 [1]; [17]): 26.6%; inhibition at 99.5 µM (SARS-CoV-2 nsp3-mac1 [1]; [17]): 41.9% |
| O=C(c1c[nH]c(=O)cn1)N1CCC(c2ccn3ncc(C(=O)N4CCCCC4)c3c2)CC1 [ASAP-0000383] | -49.044 | 45.826 | inhibition at 49.75 µM (SARS-CoV-2 nsp3-mac1 [1]; [18]): -49%; inhibition at 99.5 µM (SARS-CoV-2 nsp3-mac1 [1]; [18]): 45.8% |
| CC(C)[C@@H](Nc1ncnc2[nH]ccc12)c1nncn1C [ASAP-0000384] | 4.589 | 10.829 | inhibition at 49.75 µM (SARS-CoV-2 nsp3-mac1 [1]; [19]): 4.59%; inhibition at 99.5 µM (SARS-CoV-2 nsp3-mac1 [1]; [19]): 10.8% |
